Measurements: article PMC12671080, “Antimicrobial activities of quaternary phosphonium-type small molecular antibacterial materials against methicillin-resistant Staphylococcus aureus” (Microbiology Spectrum, 2025)
Read-outs that look alike come from different tables or passages of the source. Blank lines part the entries; values can stand above or below the compound they belong to.

Columns and labels:
[1] = Cytotoxicity assay (CCK-8); conditions: mouse
Description: (§1) The cytotoxicity of the nanocomposite was evaluated by CCK-8 assay using a commercial kit (CK04; Dojindo, Japan). […] Cell viability was calculated according to the following formula: cell viability (%) = (Ae − Ab)/(Ac − Ab) × 100% (Ab:OD of blank wells at 450 nm, Ac:OD of control wells at 450 nm, Ae:OD of experimental wells at 450 nm).

[2] = test system: Escherichia coli (E. coli, ATCC 25922); test: MIC test, modified broth microdilution; format: cell-based; conditions: read-out: Minimal inhibitory concentration (MIC) against E. coli
Description: (§2) All bacteria cells were first pre-grown overnight on blood agar plates at 37°C in a bacteriological incubator. Next, a single colony was transferred into fresh Muller Hinton broth (MHB) medium and harvested by centrifugation during the exponential growth phase, before being resuspended in sterile 0.9% physiological saline. Finally, bacterial cells were adjusted to the 0.5 McFarland standard (1.5 × 10^8 CFU/mL), and the solution was diluted in MHB to the predetermined concentrations.
(§3) MICs of all materials against MRSA, E. coli, and P. aeruginosa strains were determined using a modified broth microdilution method ([28]). Briefly, log-phase cultures (1.0 × 10⁶ CFU/mL) of each strain were inoculated into 96-well microtiter plates preloaded with serially diluted test compounds.

MRSA (ATCC 43300) = test: MIC test, modified broth microdilution; format: cell-based; conditions: Staphylococcus aureus, 24 h
Description: as §2, §3

[3] = test system: Pseudomonas aeruginosa (P. aeruginosa, ATCC 27853); test: MIC test, modified broth microdilution; format: cell-based; conditions: ATCC27853, 24 h
Description: as §2, §3

MRSA biofilm [4] = test: Crystal violet staining of biofilm formation; format: cell-based, Staphylococcus aureus; conditions: 24 h
Description: Crystal violet staining was performed by the method reported previously to measure the anti-biofilm effect of [PTPP]·I ([32]). […] A parallel study was also performed with LB broth as a blank control and the MRSA suspension was cultured in an empty well as a positive control. After incubation, the non-adhered bacteria were removed by gently washing with PBS at least three times, and the adherent biofilm was fixed with methanol for 15 min and stained with 0.1% (wt/vol) crystal violet for another 15 min. Then the excess crystal violet was removed by repeatedly washing with PBS until the blank control wells were colorless. Finally, crystal violet bound to the biofilm was dissolved in 500 µL 95% ethanol and added into 96-well plates to measure the absorbance at 595 nm using a Microplate Reader (Thermo Fisher Scientific, Waltham, MA, USA).

MRSA [5] = test: SEM of bacterial morphology and bacterial biofilm; format: cell-based, Staphylococcus aureus; conditions: 24 h
Description: Scanning electron microscopy was used to observe bacterial morphology and bacterial biofilm formation. […] Samples were then washed with PBS and dehydrated in a graded ethanol series (30%, 50%, 70%, 80%, 90%, 95%, and 100%). After lyophilization and gold spraying, the MRSA cells were visualized by SEM (SU8100, Hitachi, Tokyo, Japan). Bacterial biofilms were subjected to SEM as previously reported with slight modifications ([31]). Cell crawling pieces were incubated in 1 mL of MRSA solution (1 × 10^6 CFU/mL) in a 24-well plate. […] After 24 h of incubation at 37°C, the samples were processed as described above and the MRSA biofilms on the cell crawling pieces were observed by scanning electron microscopy.

MRSA [6] = test: Reactive oxygen species assay (DCFH-DA); format: cell-based, Staphylococcus aureus; conditions: 0.5 h
Description: The level of bacterial ROS induced by [PTPP]·I was detected by DCFH-DA assay (Reactive Oxygen Species Assay Kit, S0033S, Beyotime), as previously reported ([18]). Briefly, MRSA (1 × 10^8 CFU/mL) was inoculated with 10 µM of DCFH-DA in a centrifuge tube at 37°C for 30 min for probe loading. […] The bacterial solution without [PTPP]·I was included to use as a control. The samples were washed three times with sterile saline solution (0.9% NaCl). Finally, the level of bacterial total ROS was measured as the relative fluorescence intensity of the probes, which was detected in a Multi-mode detection platform (Molecular Devices, SpectraMax i3x) in fluorescence mode with excitation at 488 nm and emission at 525 nm.

MRSA biofilm [7] = test: Resazurin staining, metabolic activity of bacteria within biofilms; format: cell-based, Staphylococcus aureus; conditions: 24 h
Description: The metabolic activity of bacteria within biofilms was tested using resazurin (Sigma Aldrich, St. Louis, MO, USA), as previous report with slightly modified ([33]). Bacterial suspensions were exposed to graded concentrations (range 4–32 μg/mL) of [PTPP]·I in MHB broth for 24 h at 37°C. After incubation, the wells were washed three times with PBS and 0.01% final concentration of resazurin (Sigma Aldrich, St. Louis, MO, USA) was added, followed by an incubation for 1 h. Finally, the absorbance was detected in a Multi-mode detection platform (Molecular Devices, SpectraMax i3x) in fluorescence mode with excitation at 570 nm and emission at 600 nm. Bacterial suspensions without [PTPP]·I were set as a positive control, and pure MHB broth was set as a blank control, which were taken as 100% and 0% metabolic activity, respectively. Metabolic activity was calculated according to the following formula: metabolic activity (%) = (ΔAbs of sample − ΔAbs of blank control)/(ΔAbs of positive control − ΔAbs of blank control); ΔAbs = absorbance at 570 nm − absorbance at 600 nm.

MRSA [8] = test: Protein leakage assay (Bradford); format: cell-based, Staphylococcus aureus; conditions: 32 µg/mL (2 × MIC), 24 h
Description: The quantitative detection of protein leakage of bacteria was carried out by protein leakage assay using a Bradford Protein Assay Kit (P0006; Beyotime, Nantong, China). […] The bacterial solution without [PTPP]·I was used as a control. The mixture was incubated in a shaker at 37°C for 24 h and then centrifuged at 10,000 rpm at 4°C for 10 min. The supernatant was immediately collected, and protein detection reagent was added to determine the optical density (OD 600) using a Microplate Reader (Thermo Fisher Scientific, Multiskan GO) and finally converted to protein concentration values based on the standard curve.

L929 cells = test: Cytotoxicity assay (CCK-8); conditions: at the concentration of MIC, 24 h, CCK-8
Description: as §1

MRSA [9] = test: Bacterial growth curve study (OD600); format: cell-based, Staphylococcus aureus
Description: Bacterial growth curve of [PTPP]·I against MRSA cells was determined by the method reported previously ([29]). […] The bacterial solution without [PTPP]·I was used as a positive control. OD values were continuously measured for 36 h at hourly intervals to construct bacterial growth curves.

MRSA [10] = test: Agar diffusion test; format: cell-based, Staphylococcus aureus; conditions: 10 µL of 512 µg/mL on 6.0 mm disc, overnight 37°C
Description: Bacterial suspensions (1.5 × 10^8 CFU/mL) were spread onto Mueller-Hinton (M-H) agar plates using sterile cotton swabs to form a uniform carpet. A 10 µL solution of each of the five nanomaterials at a concentration of 512 µg/mL, along with PBS, was carefully applied to the surface of filter paper discs (6.0 mm in diameter), which were then placed onto M-H agar plates and incubated overnight at 37°C. Inhibition zones appeared as transparent halos on the agar surface.

MRSA [11] = test: Time-kill kinetics assay (colony counting); format: cell-based, Staphylococcus aureus
Description: The bactericidal kinetics assay was carried out with a few minor modifications as previously stated to reveal the antimicrobial effectiveness of [PTPP]·I over time ([30]). […] Bacteria were sampled every 1 h from 0 h to 6 h, diluted in a gradient, and incubated in Luria-Bertani (LB) plates at 37°C for 24 h. Finally, plates with around 30 to 300 colonies were counted and CFU/mL for each time point was calculated to construct time-kill curves. After 3 h of treatment with different concentrations of [PTPP]·I, the bacterial solution was put into PBS for several consecutive 10-fold dilutions, and 100 µL of the mixture was uniformly spread on LB agar plates and then allowed to dry for a little while. The LB agar plates were placed in a constant-temperature incubator at 37°C for 24 h, and then the colonies on the LB agar plates were counted and photographed to observe the changes in the morphology and size of MRSA colonies.

[12] = L929 cells, Cell viability of L929 cells, at the concentration of MIC, 24 h, CCK-8
[13] = ATCC25922, broth microdilution, 37°C, 24 h
[14] = broth microdilution, 37°C, read-out: Minimal inhibitory concentration (MIC) against MRSA

Structure (SMILES): CC[P+](c1ccccc1)(c1ccccc1)c1ccccc1 [[ETPP]·I, ethyl-triphenyl-phosphonium iodide]
viability at 24 h [1, 12]: ~90%
MIC ([3]; broth microdilution, 37°C, 24 h, read-out: Minimal inhibitory concentration (MIC) against P. aeruginosa): 8000 µg/mL
MIC [2, 13]: ≤ 512 µg/mL
MIC (MRSA (ATCC 43300); [14]): ≤ 64 µg/mL

Structure (SMILES): CC(C)[P+](c1ccccc1)(c1ccccc1)c1ccccc1 [[ITPP]·I, i-propyl-triphenyl-phosphonium iodide]
viability at 24 h [1, 12]: ~95%
MIC [2, 13]: ≤ 512 µg/mL
MIC (MRSA (ATCC 43300); [14]): ≤ 64 µg/mL

Structure (SMILES): C[P+](c1ccccc1)(c1ccccc1)c1ccccc1 [[MTPP]·I, methyl-triphenyl-phosphonium iodide]
viability at 24 h [1]: ~90%
MIC ([3]; read-out: Minimal inhibitory concentration (MIC) against P. aeruginosa, broth microdilution, 37°C, 24 h): 8000 µg/mL
MIC ([2]; ATCC25922, 24 h): ≤ 512 µg/mL
MIC (MRSA (ATCC 43300); read-out: Minimal inhibitory concentration (MIC) against MRSA, broth microdilution, 37°C, 24 h): 128 µg/mL

Further lines, with some results ahead:

MIC [2, 13]: ≤ 512 µg/mL
MIC (MRSA (ATCC 43300); [14]): ≤ 32 µg/mL
Structure (SMILES): CCCC[P+](c1ccccc1)(c1ccccc1)c1ccccc1 [[BTPP]·I, n-butyl-triphenyl-phosphonium iodide]
viability at 24 h [1, 12]: ~95%

MIC [2, 13]: ≤ 512 µg/mL
MIC (MRSA (ATCC 43300); [14]): 16 µg/mL
Structure (SMILES): CCCCC[P+](c1ccccc1)(c1ccccc1)c1ccccc1 [[PTPP]·I, n-pentyl-triphenyl-phosphonium iodide]
Reduction of biofilm biomass (MRSA biofilm [4]; 1/2 × MIC): 35.4%
Reduction of biofilm biomass (biofilm inhibition rate) (MRSA biofilm [4]; 1 × MIC): 96.6%
Biofilm on cell crawling pieces by SEM (MRSA [5]; 16 µg/ml (1 × MIC)): no biofilm but only the residue of bacterial disruption
Bacterial morphology by SEM (MRSA [5]; 32 µg/mL (2 × MIC)): membranes/walls of MRSA cells became rough and concave, holes appeared
ROS level elevation vs the control group (MRSA [6]; 1 × MIC): 20%
ROS level elevation vs the control group (MRSA [6]; 2 × MIC): 30%
ROS level elevation vs the control group (MRSA [6]; 4 × MIC): 141%
Metabolic activity of biofilm bacteria, of positive control (MRSA biofilm [7]; 1/2 × MIC): more than 50%
Metabolic activity of intra-film bacteria, of positive control (MRSA biofilm [7]; 1 × MIC): 1%
Protein leakage relative to control group (MRSA [8]): about 2.6 times
Cell viability of L929 cells (L929 cells): 97%
viability at 24 h [1, 12]: > 97%
Bacterial growth (OD600) (MRSA [9]; 2 µg/mL (1/8 × MIC) to 16 µg/mL (1 × MIC)): significantly inhibited
Lag phase of MRSA growth (MRSA [9]; at 1/2 × MIC): up to 10 h
Inhibition halos against MRSA (MRSA [10]): obvious inhibition halos
Time to achieve survival rate less than 1% (MRSA [11]; 1 × MIC): 6 h
Reduction of viable count (MRSA [11]; 1 × MIC, within 1 h): approximately 1 log10 CFU/mL
Survival rate (MRSA [11]; 4 × MIC for 2 h): less than 1%
